In patent US10478419B2, “Use of daphnoretin in prevention of tissue or organ transplant rejection or graft-versus-host-disease” (MacKay Memorial Hospital, priority 2017, dated 2019):

What was measured:
protein kinase C (PKC) = conditions: human hepatoma Hep3B cells; cited from earlier work
[1] = tested on: human monocyte-derived dendritic cells (DCs); assay: Flow cytometric analysis of surface markers on monocyte-derived DCs; assay type: cell-based
Experimental: Human peripheral blood mononuclear cells were collected from healthy donors and were isolated using Histopaque (Amersham Pharmacia Biotech, Piscataway, N.J., USA) for density gradient centrifugation. Erythrocytes were lysed by using 0.9% ammonium chloride incubated for 3 min at 37° C. Thereafter, CD14^+ monocytes were purified by gradient magnetic sorting method using miniMACS system with anti-CD14 microbeads (Miltenyi Biotec, Bergisch Bladbach, Germany). After incubation at 37° C. for 2 hr, nonadherent cells were removed and adherent cells were collected. The purity of isolated CD14^+ monocytes was over 90% by using flow cytometric analysis. Immature DCs were generated from CD14^+ monocytes by culture in RPMI 1640 medium supplemented with 10% fetal calf serum, 100 ng/mL GM-CSF (Schering-Plough, Munich, Germany), 50 ng/mL IL-4 (R&D Systems, Minneapolis, Minn., USA), and daphnoretin (0, 1.1, 3.3, 10 or 30 μM) every 3 days for 6 days in a humidified 5% CO2 incubator. To trigger maturation of DCs, immature DCs were incubated with lipopolysaccharide (LPS) (5 ng/mL) (Sigma, St. Louis, Mo., USA) and/or a combination of cytokines including 5 ng/mL TNF-α, 5 ng/mL IL-1β, 15 ng/mL IL-6 (R&D Systems, Minneapolis, Minn., USA), and 1 μg/mL prostaglandin E2 (PGE2) (Sigma-Aldrich, St. Louis, Mo., USA) for 24 hr. It has been shown that monocyte-conditioned medium containing a combination of pro-inflammatory cytokines (i.e., TNF-α, IL-1, IL-6, and PGE2) or LPS triggers efficient DCs maturation. Daphnoretin was purchased from Sigma (St. Louis, Mo., USA) and dissolved in PBS as a stock solution (0.5 mg/mL). Dual-color immunostain was performed using fluorescein isothiocyanate (FITC)- and phycoerythrin (PE)-conjugated monoclonal antibodies (mAbs). The mouse anti-human mAbs IgG1:FITC/mouse IgG1:PE, and appropriate isotype controls were purchased from Serotec (Oxford, UK) and used for characterization of DCs. The isotype controls used in our study included anti-CD11c and anti-CD14 (for IgG-FITC), anti-CD1a-PE, anti-CD80-PE, anti-CD83-PE, anti-HLA-DR-PE and anti-DC-SIGN-PE. Cells were incubated with saturating concentrations of PE-conjugated mAbs and primary CD11c mAbs followed by IgG-FITC at 4° C. for 30 min. After washing twice with PBS, 1×10^6 cells were applied to a FACS caliber flow cytometer (BD Biosciences, San Jose, Calif., USA). Data were collected and analyzed using CellQuest Software (BD Biosciences, San Jose, Calif., USA).

[2] = tested on: CD4+CD45RA+ naive T cells; assay: Allogenic naive T cell proliferation stimulated by matured DCs (BrdU); assay type: cell-based, human; conditions: mature DCs : CD4+CD45RA+ cells 1:10 or 1:30; FIG. 4
From the text: Nonadherent cells from culture of isolated mononuclear cells were used to purify naïve T cells. Naïve T cells were enriched with a CD4^+CD45RA^+T cell isolation kit (Miltenyi Biotec) using a MIniMACS system with negative selection technique. Monocyte-derived DCs were harvested and irradiated (3,000 cGy in a single fraction) with 6 MeV X-ray generated by linear accelerator (Clinac® 1800, Varian Associates Inc., CA) at a dose of 4.0 Gy/min. Full electron equilibrium was ensured for each fraction by a parallel plate PR-60C ionization chamber (Capintel Inc., Ramsey, N.J., USA). […] The cells were then collected and the incorporated BrdU was detected using flow cytometry to estimate T cell proliferation.

[3] = tested on: Ehrlich ascites tumor, cervical cancer and lung adenocarcinoma; conditions: cited from earlier work
[4] = tested on: human monocyte-derived dendritic cells (DCs); assay: Morphological observation of monocyte-derived DCs (differentiation); assay type: cell-based
Experimental: (§1) Human peripheral blood mononuclear cells were collected from healthy donors and were isolated using Histopaque (Amersham Pharmacia Biotech, Piscataway, N.J., USA) for density gradient centrifugation. Erythrocytes were lysed by using 0.9% ammonium chloride incubated for 3 min at 37° C. Thereafter, CD14^+ monocytes were purified by gradient magnetic sorting method using miniMACS system with anti-CD14 microbeads (Miltenyi Biotec, Bergisch Bladbach, Germany). After incubation at 37° C. for 2 hr, nonadherent cells were removed and adherent cells were collected. The purity of isolated CD14^+ monocytes was over 90% by using flow cytometric analysis. Immature DCs were generated from CD14^+ monocytes by culture in RPMI 1640 medium supplemented with 10% fetal calf serum, 100 ng/mL GM-CSF (Schering-Plough, Munich, Germany), 50 ng/mL IL-4 (R&D Systems, Minneapolis, Minn., USA), and daphnoretin (0, 1.1, 3.3, 10 or 30 μM) every 3 days for 6 days in a humidified 5% CO2 incubator. To trigger maturation of DCs, immature DCs were incubated with lipopolysaccharide (LPS) (5 ng/mL) (Sigma, St. Louis, Mo., USA) and/or a combination of cytokines including 5 ng/mL TNF-α, 5 ng/mL IL-1β, 15 ng/mL IL-6 (R&D Systems, Minneapolis, Minn., USA), and 1 μg/mL prostaglandin E2 (PGE2) (Sigma-Aldrich, St. Louis, Mo., USA) for 24 hr. […]

[5] = tested on: hepatitis B surface antigen; conditions: human hepatoma Hep3B cells; cited from earlier work
[6] = tested on: acute rejection of skin allografts; assay: Skin allograft transplantation model
From the text: Male C57BL/6(H-2^b) and BALB/6(H-2^d) mice aged 6-8 weeks were purchased from Animal Resource Center of National Science Council of Taiwan (Taipei, Taiwan) and maintained in a room with 12 hr light/dark cycles. Standard laboratory chow and water were available ad libitum. […] Briefly, a 2×1 cm full-thickness skin graft was harvested from the donor mouse and sutured to the graft bed of a recipient mouse. The skin graft rejection was defined as necrosis of more than 80% of the epidermal surface. Daphnoretin (0.5 or 1.0 mg/Kg) and rapamycin (3.0 mg/Kg) were administered intraperitoneally daily until rejection was observed. Body weight was recorded and the white blood cell count was estimated by an automatic counter.

[7] = tested on: human monocyte-derived dendritic cells (DCs); assay: Number of viable DCs, trypan blue dye exclusion test; assay type: cell-based; conditions: daphnoretin 1.1, 3.3, 10 or 30 μM, FIG. 3
Experimental: as §1

[8] = tested on: phosphorylated c-Jun N-terminal kinase (p-JNK); assay: Immunoblot analysis of phosphorylated JNK in DCs; assay type: cell-based, human; conditions: FIG. 5 panels A and B
Experimental: as §1

Row | Structure (SMILES) | protein kinase C (PKC) activity and intracellular level (protein kinase C (PKC)) | expression of CD1a ([1]; FIG. 2 panel A) | expression of macrophage marker CD14 ([1]; FIG. 2 panel B) | expression of CD40 ([1]; FIG. 2 panel C) | expression of CD83 ([1]; FIG. 2 panel D) | expression of DC-SIGN ([1]; FIG. 2 panel E) | proliferation of DCs stimulated T cells [2] | anti-cancer activity [3] | differentiation process of DCs (morphology, formation of dendrites) ([4]; daphnoretin 1.1, 3.3, 10 or 30 μM, FIG. 1) | morphology of DCs ([4]; treated with daphnoretin and anisomycin, FIG. 5 panel C) | expression of hepatitis B surface antigen [5] | fraction of the survived skin graft ([6]; daphnoretin 1.0 mg/Kg/day intraperitoneally, FIG. 6 panel A) | body weight of the recipient mouse ([6]; daphnoretin dose employed, vs control, FIG. 6 panel B) | white blood cell count of the recipient mouse ([6]; daphnoretin dose employed, vs control, FIG. 6 panel C) | cell viability (cell numbers of mature and immature DCs) [7] | level of p-JNK in DCs ([8]; DCs treated with daphnoretin) | level of p-JNK in DCs treated with daphnoretin, effect of added JNK activator ([8]; co-incubated with daphnoretin)
1 | COc1cc2cc(Oc3ccc4ccc(=O)oc4c3)c(=O)oc2cc1O [daphnoretin, 7-hydroxy-6-methoxy-3,7′-dicoumaryl ether] | inactivating protein kinase C (PKC) | suppressed | unaffected | suppressed | suppressed | suppressed | suppressed | possess anti-cancer activity | suppressed | remained rounded and without the formation of any dendrites | suppressing the expression of hepatitis B surface antigen | even higher than that treated of the rapamycin-treated mouse | did not vary significantly | did not vary significantly | reduced the cell numbers of both mature and immature DCs in dose-dependent manner | decrease | –
2 | COc1ccc(C[C@H]2NC[C@H](O)[C@H]2OC(C)=O)cc1 [anisomycin, reference compound] | – | – | – | – | – | – | – | – | – | – | – | – | – | – | – | – | could reverse this decrease
